From patent US20260263495A1, “METHODS AND BIOAVAILABLE HIGHLY PERMEABLE COMPOUNDS FOR DISEASES TREATMENT” (priority 2024, published 2026)

Assays:
[1] = tested on: monolayer of Caco-2 cells; experiment: Permeability of solid dispersion aqueous solution on the Caco-2 cell line; conditions: Caco-2 monolayer, 3 μM (per pure IVM) in HBSS on top, compound of Formula I = Example 1 No 2
SARS-CoV-2 = conditions: reference level compared with the lung Cmax; read-out: EC 50 for SARS-CoV-2; cited from earlier work
[2] = API concentration in the blood plasma of cattle after oral administration; assay type: in vivo; conditions: 600 μg/kg (per pure IVM)
Protocol: Free ivermectin substance was processed in planetary mill, the parameters were as follows: weight of the material—5 g, grinding jar volume—200 mL, grinding media—steel balls (diameter 8 mm, 90.0 g load), processing time—20 minutes. Compound of Formula I was treated according to Example 1 No21.
Cattle were divided into 2 groups of 1 animals each. Free Ivermectin (IVM) and compound of Formula I were orally administered to starving cattle. Blood samples were withdrawn from the jugular vein at appropriate time intervals after administration (0, 4, 20 h).
Ivermectin concentrations in blood plasma were analyzed according to the method Na-Bangchang, K., High-performance liquid chromatographic method for the determination of ivermectin in plasma, Southeast Asian J Trop Med Public Health, 2006 September, 37(5):848-58, PMID: 17333725.
The internal standard (moxidectin) was separated from ivermectin on a Hypersil Gold C18 column(150×4.6 mm, […]), with retention time of 3.7 and 7.0 minutes, respectively. Fluorescence detection was set at an excitation and emission wavelength of 365 and 475 nm, respectively. The mobile phase consisted of acetonitrile, methanol and distilled water (50:45:5,v/v/v), running through the column at a flow rate of 1.5 ml/minute. The chromatographic analysis was operated at 25° C. Sample preparation (100 μl plasma) was done by a single step protein precipitation with acetonitrile, followed by derivatization with 100 μl of N-methylimidazolesolution in acetonitrile (1:1, v/v) and 150 μl of trifluoroacetic anhydrous solution in acetonitrile(1:2, v/v). Calibration curve over the concentration range of 20-8,000 ng/ml plasma was linear with correlation coefficient better than 0.995.
All the blood samples were centrifuged at 3000 rpm for 15 min to obtain […]. Cattle plasma samples (100 μL each) were placed in 1.5 mL Eppendorf tubes, and then the samples underwent protein precipitation. The samples were vortexed for 1 min and centrifuged at 13,400 rpm for 10 min 20 μL of the supernatant was injected into the HPLC.

SMILES: CC[C@H](C)[C@H]1O[C@]2(CC[C@@H]1C)C[C@@H]1C[C@@H](C/C=C(\C)[C@@H](O[C@H]3C[C@H](OC)[C@@H](O[C@H]4C[C@H](OC)[C@@H](O)[C@H](C)O4)[C@H](C)O3)[C@@H](C)/C=C/C=C3\CO[C@@H]4[C@H](O)C(C)=C[C@@H](C(=O)O1)[C@]34O)O2 [IVM, Ivermectin]
- Concentrartion of IVM at the bottom of the well ([1]; 20 min): 50 ng/mL
- Concentrartion of IVM at the bottom of the well ([1]; 40 min): 90 ng/mL
- Concentrartion of IVM at the bottom of the well ([1]; 60 min): 150 ng/mL
- Concentrartion of IVM at the bottom of the well ([1]; 80 min): 190 ng/mL
- Concentrartion of IVM at the bottom of the well ([1]; 100 min): 210 ng/mL
- Concentrartion of IVM at the bottom of the well ([1]; 120 min): 250 ng/mL
- EC50 (SARS-CoV-2): 2400 nM
- Cmax [2]: 350 ± 50 nM
- C1, 0 h, ivermectin concentration in plasma ([2]; 0 h, compound of Formula I treated according to Example 1 No21): 0 ± 0.15 ng/mL
- C2, 4 h, ivermectin concentration in plasma ([2]; 4 h, compound of Formula I treated according to Example 1 No21): 307.3 ± 46.1 ng/mL
- C3, 20 h, ivermectin concentration in plasma ([2]; 20 h, compound of Formula I treated according to Example 1 No21): 104.4 ± 15.6 ng/mL
- Cmax in lung calculated by plasma-lung ratio 2.67 ([2]; calculated from plasma Cmax): 930 ± 140 nM
